Results taken from ChEMBL document CHEMBL4411300 (Eur J Med Chem, 2019).
Calls of active or inactive are those of the source. No cut-off for these calls is given here.

Columns and labels:
[1] = Nephrotoxicity in Balb/c mouse infected with Trypanosoma cruzi MHOM/Pe/2011/Arequipa DTU 5 trypomastigotes assessed as serum uric acid level at 20 mg/kg, po once daily for 5 consecutive days starting from day 10 post infection measured on day 127 post infection (reference value: 4 mg/dl); type: toxicity, organism-based; details: in vivo
[2] = system: Trypanosoma cruzi; assay: Antitrypanosomal activity against Trypanosoma cruzi MHOM/Pe/2011/Arequipa DTU 5 trypomastigotes infected in Balb/c mouse assessed as reduction in splenomegaly at 20 mg/kg, po once daily for 5 consecutive days starting from day 75 post infection measured on day 127 post infection; type: functional, organism-based
[3] = Nephrotoxicity in Balb/c mouse infected with Trypanosoma cruzi MHOM/Pe/2011/Arequipa DTU 5 trypomastigotes assessed as decrease in serum urea level at 20 mg/kg, po once daily for 5 consecutive days starting from day 75 post infection measured on day 81 post infection relative to control; type: toxicity, organism-based; set-up: scale not given: the % may be the effect or the level left; details: in vivo
[4] = system: Trypanosoma cruzi; assay: Induction of […] Trypanosoma cruzi MHOM/Pe/2011/Arequipa DTU 5 epimastigotes assessed as inhibition of DNA and RNA levels at IC25 after 72 hrs by acridine orange staining based flow cytometry relative to control; type: functional
[5] = (§1) Hepatotoxicity in Balb/c mouse infected with Trypanosoma cruzi MHOM/Pe/2011/Arequipa DTU 5 trypomastigotes assessed as change in ratio of serum ALT to GPT level at 20 mg/kg, po once daily for 5 consecutive days starting from day 75 post infection measured on day 127 post infection (reference value: 64 U/L); type: toxicity, organism-based; details: in vivo
[6] = Nephrotoxicity in Balb/c mouse infected with Trypanosoma cruzi MHOM/Pe/2011/Arequipa DTU 5 trypomastigotes assessed as decrease in serum urea level at 20 mg/kg, po once daily for 5 consecutive days starting from day 10 post infection measured on day 16 post infection relative to control; type: toxicity, organism-based; set-up: scale not given: the % may be the effect or the level left; details: in vivo
[7] = Cardiotoxicity in Balb/c mouse infected with Trypanosoma cruzi MHOM/Pe/2011/Arequipa DTU 5 trypomastigotes assessed as decrease in serum LDH level at 20 mg/kg, po once daily for 5 consecutive days starting from day 75 post infection measured on day 81 post infection relative to control; type: toxicity, organism-based; set-up: scale not given: the % may be the effect or the level left; details: in vivo
[8] = Nephrotoxicity in Balb/c mouse infected with Trypanosoma cruzi MHOM/Pe/2011/Arequipa DTU 5 trypomastigotes assessed as decrease in serum uric acid level at 20 mg/kg, po once daily for 5 consecutive days starting from day 10 post infection measured on day 16 post infection relative to control; type: toxicity, organism-based; set-up: scale not given: the % may be the effect or the level left; details: in vivo
[9] = Nephrotoxicity in Balb/c mouse infected with Trypanosoma cruzi MHOM/Pe/2011/Arequipa DTU 5 trypomastigotes assessed as decrease in serum uric acid level at 20 mg/kg, po once daily for 5 consecutive days starting from day 75 post infection measured on day 81 post infection relative to control; type: toxicity, organism-based; set-up: scale not given: the % may be the effect or the level left; details: in vivo
[10] = (§2) Cardiotoxicity in Balb/c mouse infected with Trypanosoma cruzi MHOM/Pe/2011/Arequipa DTU 5 trypomastigotes assessed as change in serum LDH level at 20 mg/kg, po once daily for 5 consecutive days starting from day 10 post infection measured on day 127 post infection by biochemical analysis (reference value: 2761 U/L); type: toxicity, organism-based; details: in vivo
[11] = system: Trypanosoma cruzi; assay: Antitrypanosomal activity against Trypanosoma cruzi MHOM/Pe/2011/Arequipa DTU 5 trypomastigotes infected in Balb/c mouse assessed as reduction in splenomegaly at 20 mg/kg, po once daily for 5 consecutive days starting from day 10 post infection measured on day 127 post infection; type: functional, organism-based
[12] = Nephrotoxicity in Balb/c mouse infected with Trypanosoma cruzi MHOM/Pe/2011/Arequipa DTU 5 trypomastigotes assessed as decrease in serum urea level at 20 mg/kg, po once daily for 5 consecutive days starting from day 75 post infection measured on day 127 post infection relative to control; type: toxicity, organism-based; set-up: scale not given: the % may be the effect or the level left; details: in vivo
[13] = as §1, with “Cardiotoxicity” for “Hepatotoxicity”, “creatine kinase in muscle” for “serum ALT”, “brain” for “GPT level”, “538” for “64”; type: toxicity, organism-based; details: in vivo
[14] = as §2, with “ratio of creatine kinase in muscle to brain” for “serum LDH level”, “496” for “2761”; type: toxicity, organism-based; details: in vivo
[15] = Hepatotoxicity in Balb/c mouse infected with Trypanosoma cruzi MHOM/Pe/2011/Arequipa DTU 5 trypomastigotes assessed as increase in total bilirubin level at 20 mg/kg, po once daily for 5 consecutive days starting from day 10 post infection measured on day 16 post infection relative to control; type: toxicity, organism-based; details: in vivo
[16] = (§3) Hepatotoxicity in Balb/c mouse infected with Trypanosoma cruzi MHOM/Pe/2011/Arequipa DTU 5 trypomastigotes assessed as increase in total bilirubin level at 20 mg/kg, po once daily for 5 consecutive days starting from day 10 post infection measured on day 127 post infection by biochemical analysis relative to control; type: toxicity, organism-based; details: in vivo
[17] = Cardiotoxicity in Balb/c mouse infected with Trypanosoma cruzi MHOM/Pe/2011/Arequipa DTU 5 trypomastigotes assessed as decrease in serum LDH level at 20 mg/kg, po once daily for 5 consecutive days starting from day 75 post infection measured on day 127 post infection relative to control; type: toxicity, organism-based; set-up: scale not given: the % may be the effect or the level left; details: in vivo
[18] = as §3, with “ratio of serum AST to GOT” for “total bilirubin”; type: toxicity, organism-based; details: in vivo
[19] = system: Trypanosoma cruzi; assay: Antitrypanosomal activity against Trypanosoma cruzi MHOM/Pe/2011/Arequipa DTU 5 epimastigotes assessed as change in mitochondrial membrane potential at IC25 after 72 hrs by Rho123 staining based flow cytometry relative to control; type: functional
[20] = Hepatotoxicity in Balb/c mouse infected with Trypanosoma cruzi MHOM/Pe/2011/Arequipa DTU 5 trypomastigotes assessed as increase in alkaline phosphatase level at 20 mg/kg, po once daily for 5 consecutive days starting from day 10 post infection measured on day 16 post infection relative to control; type: toxicity, organism-based; details: in vivo
[21] = Inhibition of Trypanosoma cruzi MHOM/Pe/2011/Arequipa DTU 5 epimastigotes Fe-SOD by UV-Visible spectrophotometric method
[22] = system: Trypanosoma cruzi; assay: Antitrypanosomal activity against Trypanosoma cruzi MHOM/Pe/2011/Arequipa DTU 5 epimastigotes assessed as effect on parasite glycolytic pathway by measuring decrease in L-alanine excretion at IC25 after 72 hrs by 1H NMR method; type: functional, organism-based
[23] = Selectivity index, ratio of IC50 for African green monkey Vero cells to IC50 for Trypanosoma cruzi IRHOD/CO/2008/SN3 DTU 1 epimastigotes; type: toxicity; details: read-out: Ratio IC50
[24] = system: Trypanosoma cruzi; assay: Antitrypanosomal activity against Trypanosoma cruzi MHOM/Pe/2011/Arequipa DTU 5 epimastigotes assessed as effect on parasite glycolytic pathway by measuring increase in glycerol excretion at IC25 after 72 hrs by 1H NMR method; type: functional, organism-based
[25] = system: Trypanosoma cruzi; assay: Trypanocidal activity against Trypanosoma cruzi TINF/CH/1956/Tulahuen DTU 6 amastigotes infected in African green monkey Vero cells after 72 hrs by Giemsa-staining based microscopic assay; type: functional, organism-based; details: TINF/CH/1956/Tulahuen DTU 6, Vero
[26] = system: Trypanosoma cruzi; assay: Trypanocidal activity against Trypanosoma cruzi MHOM/Pe/2011/Arequipa DTU 5 trypomastigotes derived from infected Balb/c albino mouse after 24 hrs by resazurin dye based assay; type: functional, organism-based; details: MHOM/Pe/2011/Arequipa DTU 5, 24 h
[27] = system: Trypanosoma cruzi; assay: Trypanocidal activity against Trypanosoma cruzi IRHOD/CO/2008/SN3 DTU 1 epimastigotes after 48 to 72 hrs by resazurin dye based assay; type: functional, organism-based
[28] = system: Trypanosoma cruzi; assay: Antitrypanosomal activity against Trypanosoma cruzi MHOM/Pe/2011/Arequipa DTU 5 epimastigotes assessed as effect on parasite glycolytic pathway by measuring decrease in acetate excretion at IC25 after 72 hrs by 1H NMR method; type: functional, organism-based

| Compound | Activity [1] [mg/dL] | Activity [2] | Activity [3] | inhibition (INH) [4] [%] | Activity [5] [U/L] | Activity [6] | Activity [7] | Activity [8] | Activity [9] | Activity [10] [U/L] | Activity [11] | Activity [12] | Activity [13] [U/L] | Activity [14] [U/L] | Activity [15] | Activity [16] | Activity [17] | Activity [18] | Activity [19] [%] | Activity [20] | also measured |
| --- | --- | --- | --- | --- | --- | --- | --- | --- | --- | --- | --- | --- | --- | --- | --- | --- | --- | --- | --- | --- | --- |
| O=C(Cn1ccnc1[N+](=O)[O-])NCc1ccccc1 [BENZNIDAZOLE] | 4 | Active | <= 10% | 22.4 | 64 | <= 10% | <= 10% | <= 10% | <= 10% | 2761 | Active | <= 10% | 538 | 496 | <= 20% | <= 10% | <= 10% | > 40% | -35.4 | <= 20% | – |
| Cl.Cl.Cl.Cl.Cl.Cl.c1ccc2nc(CNCCN(CCNCc3ccc4ccccc4n3)CCNCc3ccc4ccccc4n3)ccc2c1 | 4 | Active | <= 10% | 56.7 | – | <= 10% | – | <= 10% | <= 10% | 2761 | Active | <= 10% | 538 | 496 | <= 30% | <= 10% | – | <= 10% | -73.6 | <= 10% | IC50 [21]: 29 µM; Activity [22]: Active; selectivity ratio [23]: 112; Activity [24]: Active; IC50 [25]: 2.3 µM; IC50 [26]: 1.2 µM; IC50 [27]: 14 µM; Activity [28]: Active |
| Cl.Cl.Cl.NCCN(CCN)CCNCc1ccc2c(c1)Cc1ccccc1-2 | 4 | Active | <= 10% | 18.3 | 64 | <= 10% | <= 10% | <= 10% | <= 10% | 2761 | Active | <= 10% | 538 | 496 | <= 30% | <= 10% | <= 10% | <= 30% | 7.6 | <= 20% | IC50 [21]: 56.9 µM; Activity [22]: Active; selectivity ratio [23]: 91.3; Activity [24]: Active; IC50 [25]: 15.1 µM; IC50 [26]: 14.7 µM; IC50 [27]: 19.3 µM; Activity [28]: Active |
